Measurements published in paper PMC9597353, “Mitoguardin-2–mediated lipid transfer preserves mitochondrial morphology and lipid droplet formation” (The Journal of Cell Biology, 2022).
Residue numbers refer to the chain shown, from its start.

T1: hMIGA2long (Homo sapiens, UniProt Q7L4E1)
T1 construct: gene MIGA2; N-terminal 3xFLAG (Expi293F) and/or C-terminal His6 (E. coli), tags kept; dimer
T1 sequence (Q7L4E1 170-593): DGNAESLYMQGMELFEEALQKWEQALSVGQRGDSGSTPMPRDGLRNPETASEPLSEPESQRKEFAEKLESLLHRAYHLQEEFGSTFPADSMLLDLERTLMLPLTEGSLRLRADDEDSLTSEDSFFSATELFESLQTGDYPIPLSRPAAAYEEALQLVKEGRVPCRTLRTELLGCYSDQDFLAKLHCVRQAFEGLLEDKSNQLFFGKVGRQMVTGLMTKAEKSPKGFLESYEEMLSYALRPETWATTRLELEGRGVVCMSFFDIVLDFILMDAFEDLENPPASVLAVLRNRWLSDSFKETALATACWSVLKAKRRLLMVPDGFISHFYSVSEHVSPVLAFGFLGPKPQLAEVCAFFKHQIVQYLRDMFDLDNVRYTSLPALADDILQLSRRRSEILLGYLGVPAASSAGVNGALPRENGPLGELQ

T2: hMIGA2C (Homo sapiens, UniProt Q7L4E1)
T2 construct: gene MIGA2; C-terminal domain only, residues 306-593, C-terminal His6 kept, expressed in E. coli BL21(DE3); monomer by SEC
T2 sequence (Q7L4E1 306-593): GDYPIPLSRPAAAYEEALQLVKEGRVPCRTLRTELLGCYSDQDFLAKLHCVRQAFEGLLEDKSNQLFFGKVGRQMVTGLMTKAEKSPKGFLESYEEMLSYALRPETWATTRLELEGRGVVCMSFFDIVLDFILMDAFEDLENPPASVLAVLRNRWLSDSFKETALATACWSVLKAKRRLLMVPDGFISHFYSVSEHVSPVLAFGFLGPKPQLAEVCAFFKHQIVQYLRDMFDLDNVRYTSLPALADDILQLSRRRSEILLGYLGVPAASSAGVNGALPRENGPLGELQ

T3: hMIGA2long (Homo sapiens, UniProt Q7L4E1, R357N/S428G)
T3 construct: gene MIGA2; N-terminal 3xFLAG (Expi293F) and/or C-terminal His6 (E. coli), tags kept; dimer
T3 sequence (Q7L4E1 170-593 R357N/S428G): T1 sequence (Q7L4E1 170-593) with R188N, S259G

T4: hMIGA2long (Homo sapiens, UniProt Q7L4E1, V376D/L438E/F495H/I528K)
T4 construct: gene MIGA2; N-terminal 3xFLAG (Expi293F) and/or C-terminal His6 (E. coli), tags kept; dimer
T4 sequence (Q7L4E1 170-593 V376D/L438E/F495H/I528K): T1 sequence (Q7L4E1 170-593) with V207D, L269E, F326H, I359K

T5: hMIGA2long (Homo sapiens, UniProt Q7L4E1, V381E/V502K/L506D/F524H)
T5 construct: gene MIGA2; N-terminal 3xFLAG (Expi293F) and/or C-terminal His6 (E. coli), tags kept; dimer
T5 sequence (Q7L4E1 170-593 V381E/V502K/L506D/F524H): T1 sequence (Q7L4E1 170-593) with V212E, V333K, L337D, F355H

B1: C. elegans MIGA2 cytosolic fragment with the coiled-coil of the linker region and the C-terminal domain (residues 106-496) (domain or fragment, UniProt Q21096 106-496, looked up)
chain: SMNPIEADITSGQELCTELRKTIEKVHHNLEMVKNRSSKDMERSIKIEGILKGLKQVEDEIVLLVPQMEDFRDDNMEFYSVSGGSGYAGSVRTGRSRTLSVLSDDSFRSAVEEFACDIDDIDFVSDAANLDKNELRFLDEGMQAALNGEVKYRKSRMEFCKCDSETDFAAKLYCVRQALTNALKDEHKRVWLAKCGRTLLADFIRHTKQDPVKFFNAYDEMLEYVSNDRNEEQLRQDVEGRGVCETGFYDVAIDFIILDAFEDLKSPPSAVYSVTKNYFMSMSMKYSTLNTIIWSIIKSKRQRLKNPDGFIAKFYNISETVMPAITLGFLGTDERLGELCQYFKEQVVQFVLDVFNTQKVCYRSLEEMSEDVWIVMRNRLEAVQTRMSNEL
notes: C. elegans MIGA (mitoguardin homolog), Uniprot Q21096, residues 106-496: coiled-coil segment of the linker region and the C-terminal domain; Co-purifies with glycerophospholipid from E. coli; Plasmids of the study are in Addgene (192832, 192833, 192834, 192835, 192837, 192866, 192867); also called CeMIGA2_(long); CeMIGA_(long); source: E. coli C43 (DE3), purified (Ni-NTA, sumo protease, second …)

Experiments:
hMIGA2long [1] = target: T1, hMIGA2long; assay: native PAGE co-migration, NBD fluorescence; assay type: binding; conditions: labelled compound; on ice 2 h
hMIGA2C = target: T2, hMIGA2C; assay: end-point lipid transfer between tethered liposomes; assay type: biochemical; conditions: labelled compound; 0.32 µM protein, 2% NBD-lipid in donor liposomes, 30 min
hMIGA2long [2] = target: T3, hMIGA2long; assay: FRET lipid transfer between tethered liposomes; assay type: biochemical; conditions: labelled compound; 0.25 µM protein, 30°C; mutant M3, 3xFLAG and His6 tags
hMIGA2long [3] = target: T4, hMIGA2long; assay: FRET lipid transfer between tethered liposomes; assay type: biochemical; conditions: labelled compound; 0.25 µM protein, 30°C; mutant M1, 3xFLAG and His6 tags
hMIGA2long [4] = target: T5, hMIGA2long; assay: FRET lipid transfer between tethered liposomes; assay type: biochemical; conditions: labelled compound; 0.25 µM protein, 30°C; mutant M2, 3xFLAG and His6 tags
hMIGA2long [5] = target: T1, hMIGA2long; assay: FRET lipid transfer between tethered liposomes; assay type: biochemical; conditions: labelled compound; 0.25 µM protein, 2% NBD-lipid in donor liposomes, 30°C
[6] = target: human MIGA2 cytosolic fragment with part of the linker region (coiled-coil) and the C-terminal domain, C-terminal 6xhis (human) (UniProt Q7L4E1); assay: native MS; 200 mM ammonium acetate, 2 mM DTT; protein 1-5 μM; Q Exactive UHMR
[7] = target: the molecule itself; assay: SEC; Superdex 200 16/60, with size standards

Molecule	native PAGE co-migration, NBD fluorescence (hMIGA2long [1])	end-point lipid transfer between tethered liposomes (hMIGA2C)	further results
CCCCCCCC/C=C\CCCCCCCC(=O)OC[C@H](COP(=O)(O)O)OC(=O)CCCCCCCCCCCNc1ccc([N+](=O)[O-])c2nonc12 [NBD-PAacyl]	Phospholipids (NBD-PAacyl, NBD-PCacyl NBD-PShead, NBD-PEacyl) visualized by their fluorescence, comigrated with protein	Both hMIGA2long and hMIGA2C transport NBD-PEacyl, -PSacyl, -PAacyl, and NBD-PCacyl	–
CCCCCCCC/C=C\CCCCCCCC(=O)OC[C@H](COP(=O)([O-])OCC[N+](C)(C)C)OC(=O)CCCCCCCCCCCNc1ccc([N+](=O)[O-])c2nonc12 [NBD-PCacyl]	Phospholipids (NBD-PAacyl, NBD-PCacyl NBD-PShead, NBD-PEacyl) visualized by their fluorescence, comigrated with protein	Both hMIGA2long and hMIGA2C transport NBD-PEacyl, -PSacyl, -PAacyl, and NBD-PCacyl	–
CCCCCCCC/C=C\CCCCCCCC(=O)OC[C@H](COP(=O)(O)OCCN)OC(=O)CCCCCCCCCCCNc1ccc([N+](=O)[O-])c2nonc12 [NBD-PEacyl]	Phospholipids (NBD-PAacyl, NBD-PCacyl NBD-PShead, NBD-PEacyl) visualized by their fluorescence, comigrated with protein	Both hMIGA2long and hMIGA2C transport NBD-PEacyl, -PSacyl, -PAacyl, and NBD-PCacyl	lipid transfer impaired (hMIGA2long [2]): all three mutant constructs (M1, M2, M3) are lipid transfer impaired; lipid transfer impaired (hMIGA2long [3]): all three mutant constructs (M1, M2, M3) are lipid transfer impaired; lipid transfer impaired (hMIGA2long [4]): all three mutant constructs (M1, M2, M3) are lipid transfer impaired
CCCCCCCC/C=C\CCCCCCCC(=O)OC[C@H](COP(=O)(O)OC[C@H](N)C(=O)O)OC(=O)CCCCCCCCCCCNc1ccc([N+](=O)[O-])c2nonc12 [NBD-PSacyl]	–	Both hMIGA2long and hMIGA2C transport NBD-PEacyl, -PSacyl, -PAacyl, and NBD-PCacyl	FRET lipid transfer between tethered liposomes (hMIGA2long [5]): hMIGA2long can transport NBD-PSacyl, NBD-PAacyl, NBD-PEacyl, and NBD-PCacyl
CCCCCCCC/C=C\CCCCCCCC(=O)OC[C@H](COP(=O)(O)OC[C@H](Nc1ccc([N+](=O)[O-])c2nonc12)C(=O)O)OC(=O)CCCCCCC/C=C\CCCCCCCC [NBD-PShead]	Phospholipids (NBD-PAacyl, NBD-PCacyl NBD-PShead, NBD-PEacyl) visualized by their fluorescence, comigrated with protein	–	–
human MIGA2 cytosolic fragment with part of the linker region (coiled-coil) and the C-terminal domain, C-terminal 6xhis (from UniProt Q7L4E1 170-593) (domain or fragment)	–	–	stoichiometry N [6]: 2
B1	–	–	stoichiometry N [7]: 2
